{"source": "patent US12377065B2", "about": "“Compositions for treatment of substance use disorder” (UNIVERSITY OF NORTH TEXAS HEALTH SCIENCE CENTER, priority 2019, dated 2025)", "key": {"Swiss-Webster mice [1]": {"system": "Swiss-Webster mice", "assay": "Acute cocaine-induced hyperlocomotion (Example 2)", "settings": "cocaine 40 mg/kg; for effect on acute cocaine-induced hyperlocomotion: all doses tested, i.p., ANOVA effect of treatment"}, "Swiss-Webster mice [2]": {"system": "Swiss-Webster mice", "assay": "Cocaine-conditioned locomotor response, acquisition and expression (Example 2)"}, "Swiss-Webster mice [3]": {"system": "Swiss-Webster mice", "assay": "Nicotine-induced locomotor activity test", "format": "in vivo", "settings": "60-90 min; for motor activity, compound alone: no nicotine, vs vehicle", "description": "Test Compounds. […] Chantix (varencline, 3 mg/kg) was obtained from National Institute on Drug Abuse. All drugs were dissolved in 0.9% saline and pH was maintained at 7.\nTesting Procedures. […] In all studies, horizontal activity (interruption of photocell beams) was measured for 120 min within 10-min periods.\nDifferent groups of Swiss-Webster mice were pretreated via injection (IP) with either DMTU (5 or 10 mg/kg), or Chantix (varenicline, 3 mg/kg) or vehicle (0.9% saline) for 30 minutes (FIG. 10). Following pretreatment all groups were mice were injected via the subcutaneous (sc) route with either 0.9% saline or r nicotine (1.6 mg/kg) just prior to placement in the activity chamber. The activity of all mice were recorded for a period of 2-h (FIG. 10)."}, "mice": {"system": "mice", "assay": "Cocaine-conditioned place preference", "format": "in vivo", "description": "All mice underwent standard place conditioning. As depicted in FIG. 3, the procedures of the first four days were identical to those described previously (Shetty et al., 2017). A preference score was calculated for each individual mouse using the following equation: Time spent on S+ (at test)−Time spent on S+ (at pretest). The preference score assesses the nature and magnitude of drug conditioning to the S+ floor, with positive numbers reflecting an increase in preference for S+ following the experience with cocaine and negative numbers indicating a decrease in preference following experience with cocaine. A second test session was conducted 24 hours later (on day 5). This test was identical to the test session on day 4 except that 30 minutes prior to testing, mice were pretreated with either 5 or 10 mg/kg DMTU (i.p.). A preference score was calculated after the second test in a similar fashion as described for the first preference test.\nData Analysis. […] The existence of subgroups was determined through application of K-means clustering analysis (SYSTAT v. 13.1). In this fashion, Test 1 data was partitioned into 3 subgroups: mice with high positive preference scores (labeled as High Seeker group), mice with low positive preference scores (labeled as Low Seeker group), and mice with negative preference scores (labeled as Avoider group).\nData from the mice treated with 5 mg/kg DMTU during Test 2 were analyzed separately from data from mice treated with 10 mg/kg DMTU. Separate one-way repeated measures analysis of variance (ANOVA) was conducted, with test (comparison of preference score on test day 1 and day 2) as a within-subject factor.\nTo assess the ability of DMTU (by either the 5 mg/kg or 10 mg/kg dose) to reduce cocaine-induced preference on different subsets of mice, within-subject planned comparisons of preference scores on test 1 and 2 were performed for each cluster separately (Avoider, Low Seeker, High Seeker). Alpha was set to 0.05."}, "Swiss-Webster mice [4]": {"system": "Swiss-Webster mice", "assay": "Cocaine-conditioned locomotor activity, expression test (Example 1)", "settings": "last 15 minutes, vs Paired-vehicle, cocaine 40 mg/kg"}, "[5]": {"settings": "all doses tested, i.p., ANOVA effect of treatment, last 15 min"}}, "data": [{"compound": "CC(=O)N[C@@H](CS)C(=O)O", "note": "[NAC, N-acetylcysteine]", "values": [{"measurement": "effect on acute cocaine-induced hyperlocomotion", "setting": "Swiss-Webster mice [1]", "value": "no significant main effect"}, {"measurement": "expression of the cocaine-conditioned locomotor response", "setting": "Swiss-Webster mice [2]; 100 mg/kg i.p., post-hoc", "value": "significant attenuation"}, {"measurement": "acquisition of the cocaine-conditioned locomotor response", "setting": "Swiss-Webster mice [2]; 250 mg/kg i.p., post-hoc vs paired control", "value": "significantly attenuated acquisition"}, {"measurement": "ED50:AD50 ratio", "setting": "Swiss-Webster mice [2]", "value": 1.2731}, {"measurement": "acquisition of the cocaine-conditioned locomotor response", "setting": "Swiss-Webster mice [2]; [5]", "value": "no significant main effect"}, {"measurement": "expression of the cocaine-conditioned locomotor response", "setting": "Swiss-Webster mice [2]; [5]", "value": "main effect"}]}, {"compound": "c1cnc2cc3c(cc2n1)[C@@H]1CNC[C@H]3C1", "note": "[Chantix, varenicline]", "values": [{"measurement": "motor activity with nicotine", "setting": "Swiss-Webster mice [3]; 3 mg/kg IP 30 min pretreatment + nicotine 1.6 mg/kg sc", "value": "significant reduction"}, {"measurement": "motor activity, compound alone", "setting": "Swiss-Webster mice [3]; 3 mg/kg IP alone", "value": "significant reduction"}]}, {"compound": "Cc1c(C)c2c(c(C)c1O)CC[C@@](C)(CCC[C@H](C)CCC[C@H](C)CCCC(C)C)O2", "note": "[Vitamin E, (+)-alpha-tocopherol]", "values": [{"measurement": "effect on acute cocaine-induced hyperlocomotion", "setting": "Swiss-Webster mice [1]", "value": "had no effect on the acute effect of cocaine"}, {"measurement": "acquisition of the cocaine-conditioned locomotor response", "setting": "Swiss-Webster mice [2]; [5]", "value": "failed to attenuate acquisition"}, {"measurement": "expression of the cocaine-conditioned locomotor response", "setting": "Swiss-Webster mice [2]; [5]", "value": "failed to attenuate"}]}, {"compound": "CNC(=S)NC", "note": "[DMTU, N,N′-dimethylthiourea]", "values": [{"measurement": "cocaine-conditioned place preference score, Test 2 vs Test 1", "setting": "mice; 5 mg/kg i.p. 30 min before Test 2, clusters combined, cocaine 15 mg/kg", "value": "not significantly altered"}, {"measurement": "cocaine-conditioned place preference score, Test 2 vs Test 1", "setting": "mice; 5 mg/kg i.p., Avoider group", "value": "Neither dose of DMTU succeeded in blocking preference scores"}, {"measurement": "cocaine-conditioned place preference score, Test 2 vs Test 1", "setting": "mice; 5 mg/kg i.p., High Seeker subset", "value": "significantly reduced preference scores"}, {"measurement": "cocaine-conditioned place preference score, Test 2 vs Test 1", "setting": "mice; 5 mg/kg i.p., Low Seeker group", "value": "Neither dose of DMTU succeeded in blocking preference scores"}, {"measurement": "cocaine-conditioned place preference score, Test 2 vs Test 1", "setting": "mice; 10 mg/kg i.p. 30 min before Test 2, clusters combined, cocaine 15 mg/kg", "value": "not significantly altered"}, {"measurement": "cocaine-conditioned place preference score, Test 2 vs Test 1", "setting": "mice; 10 mg/kg i.p., Avoider group", "value": "Neither dose of DMTU succeeded in blocking preference scores"}, {"measurement": "cocaine-conditioned place preference score, Test 2 vs Test 1", "setting": "mice; 10 mg/kg i.p., High Seeker subset", "value": "significantly reduced preference scores"}, {"measurement": "cocaine-conditioned place preference score, Test 2 vs Test 1", "setting": "mice; 10 mg/kg i.p., Low Seeker group", "value": "Neither dose of DMTU succeeded in blocking preference scores"}, {"measurement": "nicotine-induced stimulant locomotor activity (horizontal activity, counts)", "setting": "Swiss-Webster mice [3]; 5 mg/kg IP 30 min pretreatment + nicotine 1.6 mg/kg sc, only 10 mg/kg was significant", "value": "modulated nicotine induced stimulant action"}, {"measurement": "nicotine-induced stimulant locomotor activity (horizontal activity, counts)", "setting": "Swiss-Webster mice [3]; 10 mg/kg IP 30 min pretreatment + nicotine 1.6 mg/kg sc, vs nicotine alone", "value": "significantly reduced the nicotine stimulant activity"}, {"measurement": "motor activity, compound alone", "setting": "Swiss-Webster mice [3]; DMTU alone (5 or 10 mg/kg IP)", "value": "failed to alter the motor activity"}, {"measurement": "effect on acute cocaine-induced hyperlocomotion", "setting": "Swiss-Webster mice [1]", "value": "no significant main effect"}, {"measurement": "expression of cocaine-conditioned locomotor activity (horizontal activity, counts)", "setting": "Swiss-Webster mice [4]; 5 mg/kg i.p. 30 min before expression test", "value": "did not affect activity"}, {"measurement": "expression of cocaine-conditioned locomotor activity (horizontal activity, counts)", "setting": "Swiss-Webster mice [4]; 10 mg/kg i.p. 30 min before expression test", "value": "significantly inhibited cocaine-conditioned locomotor activity"}, {"measurement": "acquisition of the cocaine-conditioned locomotor response", "setting": "Swiss-Webster mice [2]; 50 mg/kg i.p., post-hoc", "value": "significantly attenuated acquisition"}, {"measurement": "expression of the cocaine-conditioned locomotor response", "setting": "Swiss-Webster mice [2]; 25-50 mg/kg i.p., post-hoc", "value": "significantly attenuating expression"}, {"measurement": "ED50:AD50 ratio", "setting": "Swiss-Webster mice [2]", "value": 4.676}, {"measurement": "acquisition of the cocaine-conditioned locomotor response", "setting": "Swiss-Webster mice [2]; [5]", "value": "significant main effect"}, {"measurement": "expression of the cocaine-conditioned locomotor response", "setting": "Swiss-Webster mice [2]; [5]", "value": "significant effect on expression"}]}, {"compound": "O=C1O[C@H]([C@@H](O)CO)C(O)=C1O", "note": "[Vitamin C, L-ascorbic acid]", "values": [{"measurement": "effect on acute hyperkinetic effect of cocaine", "setting": "Swiss-Webster mice [1]; 100 mg/kg i.p.", "value": "facilitated the acute hyperkinetic effect of cocaine"}, {"measurement": "acquisition of the cocaine-conditioned locomotor response", "setting": "Swiss-Webster mice [2]; 100 mg/kg i.p., initial 15 min of the test, post-hoc", "value": "facilitated acquisition of the conditioned locomotor response"}, {"measurement": "acquisition of the cocaine-conditioned locomotor response", "setting": "Swiss-Webster mice [2]; [5]", "value": "failed to attenuate acquisition"}, {"measurement": "expression of the cocaine-conditioned locomotor response", "setting": "Swiss-Webster mice [2]; [5]", "value": "failed to attenuate"}]}, {"compound": "COc1cc(C(C)=O)ccc1O", "note": "[Apocynin, apocynin]", "values": [{"measurement": "effect on acute cocaine-induced hyperlocomotion", "setting": "Swiss-Webster mice [1]", "value": "no significant main effect"}, {"measurement": "expression of the cocaine-conditioned locomotor response", "setting": "Swiss-Webster mice [2]; 25 mg/kg i.p., initial 15 min of the test, post hoc", "value": "facilitated expression of the conditioned response"}, {"measurement": "acquisition of the cocaine-conditioned locomotor response", "setting": "Swiss-Webster mice [2]; [5]", "value": "no effect on acquisition"}, {"measurement": "expression of the cocaine-conditioned locomotor response", "setting": "Swiss-Webster mice [2]; [5]", "value": "no effect on expression"}]}]}
